Experimental data taken from patent US20030180735A1, “Screening method” (priority 1999, published 2003).
“Also recorded” adds a separate entry of the source.

Experiments:
Type in all cases: cell-based
HeLa cells = conditions: agent plus cisplatin 10 μg/ml, overnight, crystal violet
Method: (§1) In our system, cells are cultured in 96 well plates in 100 μl of culture medium and are treated in ways known to induce apoptosis. Following an indicated period of time, 10 μl MTT stock solution (5 mg/mi) is added to each culture being assayed and incubated at 37° C. for 4 h. At the end of the incubation period the converted dye is solubilised with acidic-isopropanol (0.04N HCL. Absorbance of converted dye is measured at a wavelength of 570 nm.
The following example describes a method to analyse viability of adherent cells, such as HeLa, using chemical stain Crystal Violet. Adherent cells are cultured in the presence of known agents to induce/ modulate the apoptotic process. After a suitable period of time, supernatants are removed by inverting and flicking the plate. Wells are washed twice with PBS and remaining adherent cells are fixed with 100% EtOH and air-dried. To each well is added 100 μl of 1% aqueous Crystal Violet Solution (Sigma). Plates are then incubated at room temperature (RT) for 5 min before washing in tap water. Wells are solubilised in 33% acetic acid and optical density is measured at 570 nm using a plate reader.
HeLa cells are plated in full culture medium at a concentration of 2×10^4 cells/well of 96 well plate. […] Cells are cultured overnight at 37° C. before analysing for apoptosis using either MTT or crystal violet.
HeLa cells are plated in full culture medium at a concentration of 2×10^4 cells/well of 96 well plate. […] Cells are cultured overnight at 37° C. before analysing for apoptosis using crystal violet.
HeLa cells are plated into 96 well plate at a concentration of 2×10^4/well and allowed to adhere for 4 hours Culture medium is then replaced with fresh medium containing the indicated concentrations of TNFα together with 5 μg/ml cycloheximide. Cultures are maintained for a further 18 hours, before measuring apoptosis with crystal violet and reading @570 nm in a plate reader.
Cells are cultured for a further 18 h before staining the remaining adherent cells with crystal violet and measuring absorbance at 570 nm.

[1] = test system: primary human neutrophils; experiment: Neutrophil survival/viability by MTT assay
Method: primary human neutrophils are isolated and purified from peripheral blood of normal healthy individuals. Neutrophils are resuspended in serum containing culture medium together with various amounts of GM-CSF at a density of 2×10^6/ml, with 100 μl plated into a 96 well plate and cultured for 18 h at 37° C. After this time 10 μl of MTT (5 mg/ml) is added to the cultures and incubated for a further 4 h at 37° C. before solubilisation of the purple coloured formazan with acidic isopropanol. Optical densities are read at 570 nm using a plate reader.
A time course of GM-CSF additions was carried out to neutrophils in order to determine up to what stage GM-CSF can induce survival in neutrophils. primary human neutrophils are isolated and purified from peripheral blood of normal healthy individuals. Neutrophils are resuspended in serum containing culture medium at a concentration of 2×10^6/ml, with 100 μl/well plated into a 96 well plate and culture at 37° C. commenced. At the indicated time points GM-CSF (50U/ml) was added to the neutrophils and culture continued until 20 h post initiation of culture. After this time, 10 μl of MTT (5 mg/ml) was added to the cultures and incubated for a further 4 h at 37° C. before solubilisation of the purple coloured formazan with acidic isopropanol. Optical densities were read at 570 nm using a plate reader. […] However, if administration of the cytokine is delayed for 20 h post isolation, the protective effect is zero in 24 h cultures.
We performed timed additions of anti-GM-CSF antibody to neutrophils in order to determine how immediate the anti-apoptotic effects induced by GM-CSF occur. primary human neutrophils are isolated and purified from peripheral blood of normal healthy individuals. […] Optical densities are read at 570 nm using a plate reader. […]
as §1, with “Following an indicated period of time, 10 μl MTT stock solution (5 mg/mi) is added to each culture being assayed and incubated at 37° C. for 4 h.” left out

[2] = test system: primary human neutrophils; experiment: Neutrophil gene expression, Incyte LifeGrid microarray
Method: Primary human neutrophils are isolated and purified from peripheral blood of normal healthy individuals. Neutrophils are resuspended in serum containing culture medium together with GM-CSF (50U) at a concentration of 2×10^6/ml, and cultured for 0 h (control), 2 h, 4 h and 6 h at 37° C. After these times, total cellular RNA is extracted and this used as the starting material for analysis of gene expression changes.
Primary human neutrophils are isolated and purified from peripheral blood of normal healthy individuals. Neutrophils are resuspended in serum containing culture medium together with GM-CSF (50U) at a concentration of 2×10^6/ml, and cultured for 0 h (control), 2 h, 4 h and 6 h at 37° C. After these times, total cellular RNA is extracted and this used as the starting material for analysis of gene expression changes using the Incyte “LifeGrid” microarray. Following cluster analysis, a cluster of genes are identified that contained several genes involved in neutrophil survival and whose transcription is up—regulated upon GM-CSF treatment. This cluster, which included BcI2-A1 (a ‘known’ antiapoptotic neutrophil BCL2 family member) is termed the ‘survival’ cluster (See FIG. 14). Among these genes, one group that could be clearly identified are those genes whose protein products are involved in protecting the cell against an increased oxidative environment (FIG. 14). […] Since all these gene products are attenuators of the oxidative cellular response it is indicative that GM-CSF protects the cell by reducing the harmful effects of reactive oxygen species. The corollary therefore is that spontaneous apoptosis must be due to an uncontrolled oxidative environment within the cell. Furthermore, this reaffirms that the neutrophils response to reactive oxidative species is […] of the glutathione system.
Methodology is as described by manufacturer, for Human LifeGrid™ arrays. Essentially, total cellular RNA (1 μg to 20 μg) or polyA+ mRNA (100 ng to 5 μg) is incubated with an oligo (dT) primer. Primed RNA is reverse transcribed to first stand cDNA in a reaction containing M-MLV reverse transcriptase (RT; alternatively Superscript II is used (Life Sciences)), RT buffer, dNTPs and [α-^33P] dCTP (2000-4000 Ci/mmol) at 42° C. for 1 to 5 h.
Methodology is as described by manufacturer, for Human LifeGrid™ arrays.

[3] = GM-CSF (50U), vs control levels

Row | Compound | HeLa cell sensitivity to cisplatin (HeLa cells) | effect on GM-CSF mediated survival ([1]; BSO 1 or 4 mM, GM-CSF 5 u/ml, 18 h) | expression of catalase [2, 3] | expression of ferritin [2, 3] | expression of mitochondrial superoxide dismutase [2, 3] | transcription of fructose 1,6 bisphosphatase ([2]; GM-CSF, 6 hour period) | transcription of phosphofructokinase 1 ([2]; GM-CSF, 6 hour period) | relation of survival to GM-CSF concentration (MTT) ([1]; 18 h culture) | protective effect when GM-CSF addition is delayed 20 h post isolation ([1]; GM-CSF 50U/ml, 24 h cultures)
1 | CCCCS(=N)(=O)CCC(N)C(=O)O (stereo not shown) [BSO, buthionine sulphoximine] | increase the sensitivity; also recorded: dramatically sensitises HeLa cell towards cisplatin | did not impact on GM-CSF to mediate survival | – | – | – | – | – | – | –
2 | CC(=O)N[C@@H](CS)C(=O)O [NAC] | decreased; also recorded: desensitised towards cisplatin | – | – | – | – | – | – | – | –
3 | GM-CSF: well-characterised neutrophil growth/survival factor (cytokine) | – | – | increased expression | increased expression | increased expression | upregulates | down regulated | direct correlation between survival and concentrations of GM-CSF | zero and not sufficient to mediate survival
